System: human melanocyte line WM35
Conditions: wild-type WM35 treated 24 h before H2O2 stress; compared with clone-2 line
Protocol: To carry out the test, the cells are inoculated at the density of 2.5×10^4 cells/well and then treated with the compounds to be evaluated:
a—1:1 mixture containing 4 μg/ml of cafestol and kahweol;
After 24 h, the cells are exposed to a stress induced by H2O2.
The cell viability is measured 24 h after the stress with the aid of 2′,7′-dichlorodihydrofluoresceine diacetate (H2DCFDA; D399, Molecular Probes).

Q: How did the “effect on sensitivity of the wild-type line to H2O2 induced stress” value turn out when `Cc1c(-c2cnccn2)ssc1=S` [oltipraz] was run?
A: limits the sensitivity of the cells to H2O2 induced stress

Reference: patent US8481762B2, “Administration of compounds that increase glutathione levels in the melanocytes for the treatment of canities” (L'Oreal, priority 2004, dated 2013)
